The term Kd denotes the constant that tells how readily two partners part at equilibrium.

Assay [1] addresses T1, P-glycoprotein (Pgp; Abcb1a, MDR3) (Mus musculus, UniProt P21447). Nature of the assay: intrinsic protein. The assay is classed as binding.
The target in assay [2] is T1, P-glycoprotein (Pgp; Abcb1a, MDR3). The assay can be described thus: intrinsic protein. The assay is classed as binding. This is another data set of the same source.

Where two headings read alike, the source gives them in different places.

T1 sequence (P21447 whole entry): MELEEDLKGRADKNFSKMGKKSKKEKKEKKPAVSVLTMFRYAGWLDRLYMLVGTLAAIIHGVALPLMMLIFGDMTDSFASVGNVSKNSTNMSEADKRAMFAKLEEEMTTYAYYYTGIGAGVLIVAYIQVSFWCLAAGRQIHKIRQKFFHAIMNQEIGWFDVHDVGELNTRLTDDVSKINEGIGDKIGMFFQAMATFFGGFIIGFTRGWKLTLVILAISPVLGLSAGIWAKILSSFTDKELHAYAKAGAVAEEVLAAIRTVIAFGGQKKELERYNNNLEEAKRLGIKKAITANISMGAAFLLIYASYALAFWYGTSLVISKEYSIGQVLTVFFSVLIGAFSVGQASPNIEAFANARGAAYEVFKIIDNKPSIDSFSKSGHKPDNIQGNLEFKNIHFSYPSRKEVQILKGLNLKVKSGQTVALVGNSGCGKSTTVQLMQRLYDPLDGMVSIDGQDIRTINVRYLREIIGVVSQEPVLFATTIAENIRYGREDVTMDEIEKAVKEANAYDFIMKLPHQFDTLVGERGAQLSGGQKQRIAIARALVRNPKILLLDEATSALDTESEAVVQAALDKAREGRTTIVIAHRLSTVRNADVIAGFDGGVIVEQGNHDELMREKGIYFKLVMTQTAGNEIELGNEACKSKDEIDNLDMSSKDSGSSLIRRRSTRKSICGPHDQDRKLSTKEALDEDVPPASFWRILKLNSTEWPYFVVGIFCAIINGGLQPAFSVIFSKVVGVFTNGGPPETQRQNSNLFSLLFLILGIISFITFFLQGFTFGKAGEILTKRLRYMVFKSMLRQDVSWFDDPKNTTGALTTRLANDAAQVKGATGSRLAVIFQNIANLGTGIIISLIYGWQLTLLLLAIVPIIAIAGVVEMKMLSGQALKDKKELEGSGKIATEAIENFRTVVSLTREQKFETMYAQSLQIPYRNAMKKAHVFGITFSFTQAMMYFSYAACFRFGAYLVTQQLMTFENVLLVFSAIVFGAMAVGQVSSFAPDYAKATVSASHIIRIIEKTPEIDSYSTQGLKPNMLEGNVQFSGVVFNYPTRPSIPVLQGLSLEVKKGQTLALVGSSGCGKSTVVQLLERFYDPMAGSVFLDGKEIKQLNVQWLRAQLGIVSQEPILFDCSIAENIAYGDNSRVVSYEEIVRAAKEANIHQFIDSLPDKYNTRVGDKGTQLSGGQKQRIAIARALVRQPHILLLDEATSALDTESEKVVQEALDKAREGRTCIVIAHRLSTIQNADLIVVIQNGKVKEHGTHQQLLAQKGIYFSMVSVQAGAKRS

In assay [1], `CN1CCC[C@@H]1Cc1c[nH]c2ccc(CCS(=O)(=O)c3ccccc3)cc12` [ETT, eletriptan] yielded a Kd of 115 ± 10 µM. For the molecule `CNS(=O)(=O)Cc1ccc2[nH]cc(CCN(C)C)c2c1` [STT, sumatriptan], binding in assay [2] was put at a Kd of 92.6 ± 25 µM.

The values above are taken from paper PMC6309430 (Journal of pharmaceutical sciences, 2017).
